Test results published in ChEMBL document CHEMBL1133581, “Synthesis and in vitro and in vivo functional studies of ortho-substituted phenylpiperazine and N-substituted 4-N-(o-methoxyphenyl)aminopiperidine analogues of WAY100635” (J Med Chem, 2000).

Experiments:
[1] = target: T1, 5-hydroxytryptamine receptor 1A (Rattus norvegicus, UniProt P19327); test: biochemical
T1 sequence (P19327 whole entry): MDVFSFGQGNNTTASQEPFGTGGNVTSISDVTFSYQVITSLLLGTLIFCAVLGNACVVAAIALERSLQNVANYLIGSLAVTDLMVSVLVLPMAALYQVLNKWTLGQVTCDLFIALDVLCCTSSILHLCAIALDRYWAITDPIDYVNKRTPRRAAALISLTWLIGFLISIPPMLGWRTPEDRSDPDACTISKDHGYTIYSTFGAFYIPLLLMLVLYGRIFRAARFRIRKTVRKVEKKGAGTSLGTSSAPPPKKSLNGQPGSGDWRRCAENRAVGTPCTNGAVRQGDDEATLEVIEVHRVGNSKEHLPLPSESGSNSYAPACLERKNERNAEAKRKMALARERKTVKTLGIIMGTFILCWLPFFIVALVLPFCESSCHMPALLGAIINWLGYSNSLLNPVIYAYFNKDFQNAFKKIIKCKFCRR
Description: In vitro affinity against 5-hydroxytryptamine 1A receptor using [3H]-8-OH-DPAT in rat hippocampus

[2] = organism: Rattus norvegicus
Description: Ability to counteract the 8-OH-DPAT (1 mg/kg sc)-induced Hypothermia in rats (n=4) and evaluated for the decrease in body temperature (degrees Celsius) at 0.1(micro mol/kg)

[3] = organism: Rattus norvegicus; remark: listed apart in the source
Description: Ability to counteract the 8-OH-DPAT (1 mg/kg sc)-induced Hypothermia in rats (n=4) and evaluated for the decrease in body temperature (degrees Celsius) at 1.0(micro mol/kg)

[4] = organism: Rattus norvegicus; remark: listed apart in the source
Description: Ability to counteract the 8-OH-DPAT (1 mg/kg sc)-induced Hypothermia in rats (n=4) and evaluated for the decrease in body temperature (degrees Celsius) at 10(micro mol/kg)

[5] = organism: Rattus norvegicus; remark: listed apart in the source
[6] = organism: Cavia porcellus; test: tissue or blood; details: Ileum, read-out: pA2 (converted)
Description: Ability to antagonize the 8-OH-DPAT-induced contractions of a strip of guinea pig ileum tissue

Structure (SMILES)	IC50 [1] [nM]	Decrease [2] [°C]	Decrease [3] [°C]	Decrease [4] [°C]	Vocalization time [5] [s]	Kb [6] [nM]
COc1ccccc1N(C)C1CCN(CCN(C(=O)C2CCCCC2)c2ccccn2)CC1	1290					
O=C(C1CCCCC1)N(CCN1CCN(c2ccccc2OS(=O)(=O)C(F)(F)F)CC1)c1ccccn1	36	1.5	0	0.3	146	20
CCCN(CCC)C1CCc2cccc(O)c2C1 (stereo not drawn) [8-OH-DPAT]		2			4.9	
O=C(C1CCCCC1)N(CCN1CCN(c2ccccc2OCCCF)CC1)c1ccccn1	6.05	2.4	0.6	0.5	171	5.01
CS(=O)(=O)Oc1ccccc1N1CCN(CCN(C(=O)C2CCCCC2)c2ccccn2)CC1	7.25	1.1	0.5	0.4	167	2.51
O=C(C1CCCCC1)N(CCN1CCN(c2ccccc2O)CC1)c1ccccn1	2.1	0.6	0.2	0.3	166	10
O=C(C1CCCCC1)N(CCN1CCN(c2ccccc2OCCF)CC1)c1ccccn1	1.55	1.8	1.1	0.4	164	3.16
